Source: PubChem BioAssay (NCI)
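96-well plates; 48 h exposure; 5 concentrations. Endpoints by linear interpolation between flanking doses. Not reached: highest tested concentration assigned. TGI denotes the concentration required for complete inhibition of growth.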

Assays:
Assay in all cases: NCI anticancer screen, dose series, 48 h
[1] = tested on: UACC-62 melanoma
[2] = tested on: COLO 205 colon
[3] = tested on: SK-MEL-2 melanoma
[4] = tested on: HCC-2998 colon
[5] = tested on: HOP-92 NSCLC
[6] = tested on: OVCAR-5 ovarian
[7] = tested on: MCF7 breast
[8] = tested on: IGROV1 ovarian
[9] = tested on: MDA-N
[10] = tested on: MALME-3M melanoma
[11] = tested on: OVCAR-4 ovarian
[12] = tested on: HS 578T breast
[13] = tested on: SW-620 colon
[14] = tested on: 786-0 renal
[15] = tested on: LOX IMVI melanoma
[16] = tested on: PC-3 prostate
[17] = tested on: SNB-19 CNS
[18] = tested on: SF-539 CNS
[19] = tested on: SN12C renal
[20] = tested on: SR leukemia
[21] = tested on: EKVX NSCLC
[22] = tested on: HCT-15 colon
[23] = tested on: ACHN renal
[24] = tested on: OVCAR-8 ovarian
[25] = tested on: UO-31 renal
[26] = tested on: HCT-116 colon
[27] = tested on: CCRF-CEM leukemia
[28] = tested on: HT29 colon
[29] = tested on: NCI-H226 lung
[30] = tested on: T-47D breast
[31] = tested on: HOP-62 NSCLC
[32] = tested on: M14 melanoma
[33] = tested on: SF-268 CNS
[34] = tested on: SK-OV-3 ovarian
[35] = tested on: A549 NSCLC
[36] = tested on: HL-60(TB) leukemia
[37] = tested on: CAKI-1 renal
[38] = tested on: BT-549 breast
[39] = tested on: NCI/ADR-RES ovarian
[40] = tested on: DU-145 prostate
[41] = tested on: K-562 leukemia
[42] = tested on: NCI-H23 lung
[43] = tested on: OVCAR-3 ovarian
[44] = tested on: UACC-257 melanoma
[45] = tested on: MDA-MB-231 breast
[46] = tested on: SF-295 CNS
[47] = tested on: U251 CNS
[48] = tested on: SK-MEL-28 melanoma
[49] = tested on: SNB-75 CNS
[50] = tested on: TK-10 renal
[51] = tested on: NCI-H460 lung
[52] = tested on: RPMI-8226 leukemia
[53] = tested on: RXF 393 renal
[54] = tested on: A498 renal
[55] = tested on: SK-MEL-5 melanoma
[56] = tested on: KM12 colon
[57] = tested on: MDA-MB-435
[58] = tested on: MOLT-4 leukemia
[59] = tested on: NCI-H522 lung

Cn1c(=O)[nH]c2nccnc2c1=O
TGI [1]: > 10 µM | TGI [2]: > 10 µM | TGI [3]: > 10 µM | TGI [4]: > 10 µM | TGI [5]: > 10 µM | TGI [6]: > 10 µM | TGI [7]: > 10 µM | TGI [8]: > 10 µM | TGI [9]: > 10 µM | TGI [10]: > 10 µM | TGI [11]: > 10 µM | TGI [12]: > 10 µM | TGI [13]: > 10 µM | TGI [14]: > 10 µM | TGI [15]: > 10 µM | TGI [16]: > 10 µM | TGI [17]: > 10 µM | TGI [18]: > 10 µM | TGI [19]: > 10 µM | TGI [20]: > 10 µM | TGI [21]: > 10 µM | TGI [22]: > 10 µM | TGI [23]: > 10 µM | TGI [24]: > 10 µM | TGI [25]: > 10 µM | TGI [26]: > 10 µM | TGI [27]: > 10 µM | TGI [28]: > 10 µM | TGI [29]: > 10 µM | TGI [30]: > 10 µM | TGI [31]: > 10 µM | TGI [32]: > 10 µM | TGI [33]: > 10 µM | TGI [34]: > 10 µM | TGI [35]: > 10 µM | TGI [36]: > 10 µM | TGI [37]: > 10 µM | TGI [38]: > 10 µM | TGI [39]: > 10 µM | TGI [40]: > 10 µM | TGI [41]: > 10 µM | TGI [42]: > 10 µM | TGI [43]: > 10 µM | TGI [44]: > 10 µM | TGI [45]: > 10 µM | TGI [46]: > 10 µM | TGI [47]: > 10 µM | TGI [48]: > 10 µM | TGI [49]: > 10 µM | TGI [50]: > 10 µM | TGI [51]: > 10 µM | TGI [52]: > 10 µM | TGI [53]: > 10 µM | TGI [54]: > 10 µM | TGI [55]: > 10 µM | TGI [56]: > 10 µM | TGI [57]: > 10 µM | TGI [58]: > 10 µM | TGI [59]: > 10 µM

CCOP(=O)(O)C(Nc1ccc(N=Nc2ccccc2)cc1)c1ccc(C(Nc2ccc(N=Nc3ccccc3)cc2)P(=O)(O)OCC)cc1 (stereo not drawn)
TGI [1]: 35 µM | TGI [2]: 28.8 µM | TGI [3]: 32.8 µM | TGI [4]: 34.3 µM | TGI [5]: 95.1 µM | TGI [6]: 53.7 µM | TGI [7]: > 100 µM | TGI [8]: 47.8 µM | TGI [9]: 40.8 µM | TGI [10]: 32.2 µM | TGI [11]: > 100 µM | TGI [12]: 46.8 µM | TGI [13]: 38.2 µM | TGI [14]: 78.5 µM | TGI [15]: 29.6 µM | TGI [16]: 35.7 µM | TGI [17]: 41.2 µM | TGI [18]: 38.2 µM | TGI [19]: 46.3 µM | TGI [20]: 42.6 µM | TGI [21]: 41 µM | TGI [22]: 47.9 µM | TGI [23]: > 100 µM | TGI [24]: 31.4 µM | TGI [25]: > 100 µM | TGI [26]: 39.5 µM | TGI [27]: 41.6 µM | TGI [28]: 33.8 µM | TGI [29]: 99.2 µM | TGI [30]: 47.1 µM | TGI [31]: 36.3 µM | TGI [32]: 29.6 µM | TGI [33]: 42.9 µM | TGI [34]: 36.8 µM | TGI [35]: 88.7 µM | TGI [36]: 37 µM | TGI [37]: > 100 µM | TGI [38]: 49.2 µM | TGI [39]: 73 µM | TGI [40]: > 100 µM | TGI [41]: 35.7 µM | TGI [42]: 64.2 µM | TGI [43]: > 100 µM | TGI [44]: 70.1 µM | TGI [45]: 90.9 µM | TGI [46]: 35 µM | TGI [47]: 33.5 µM | TGI [48]: 33.5 µM | TGI [49]: 34.5 µM | TGI [50]: > 100 µM | TGI [51]: 50.3 µM | TGI [52]: 53.8 µM | TGI [53]: 49.3 µM | TGI [54]: 64.8 µM | TGI [55]: 30.7 µM | TGI [56]: 31 µM | TGI [57]: 32.4 µM | TGI [58]: 37.2 µM | TGI [59]: 37.6 µM
